From patent EP0258134A1, “Therapeutical compositions containing benzhydryl thiomethane derivatives” (LABORATOIRE L. LAFON, priority 1986, dated 1988)
Marks after values point to notes of the source that are not given here.

Experiments:
Assay type in all cases: in vivo
souris [1] = assay: Asphyxic anoxia (gallamine triethiodide); details: 128 mg/kg, triiodoéthylate de gallamine 32 mg/kg i.p.
Procedure: Des lots de 20 souris reçoivent le composé CRL 41 334 une demi-heure avant l'administration intrapéritonéale de 32 mg/kg de triiodoéthylate de gallamine.
Des lots de 10 souris reçoivent le CRL 40 956 une demi-heure avant l'administration intrapé-ritonéale de 32 mg/kg de triodoéthylate de Gallamine.

souris [2] = assay: Interaction with reserpine, mouse
Procedure: Quatre heures après l'injection intrapéritonéale de 2,5 mg/kg de réserpine, des lots de 12 souris reçoivent le composé CRL 41 334. • 1 - Action sur la température • 2 - Action sur le ptosis

[3] = system: souris femelles de souche OF₁; assay: Delayed hypersensitivity reaction to sheep red blood cells; details: for Ind. Activité / % d'augmentation du coussinet (mm) m: voie orale; for % d'augmentation du coussinet (mm) m: trois jours avant immunisation
Excerpt: Selon la méthode de Miller, Lagrange et Mackaness ("Immunopotentiation with BCG II modulation of the response to sheep red blood cells", Journal of the National Cancer Institute 1973, 51, 5, 1669 - 1676).
Le composé à tester est administré par voie orale a des souris femelles de souche OF₁ trois jours avant immunisation.
Les résultats sont exprimés en pourcentage d'augmentation du coussinet plantaire.

souris [4] = assay: Global behaviour and reactivities, mouse, i.p.
Procedure: Le composé CRL 41 334, en suspension dans une solution de gomme arabique, a été administré par voie intrapéritonéale sous un volume de 20 ml/kg chez la souris (mâle, NMRI, C.E.R. Janvier) et de 5 ml/kg chez le rat (mâle, CD₁; SPRAGUE DAWLEY, Charles River).
Des lots de 3 animaux sont observés avant, puis 15 mn, 30 mn, 1h, 2h, 3h et 24 heures après l'administration du composé CRL 41 334.
Le CRL 41 055, en suspension dans une solution de gomme arabique, a été administré par voie intrapéritonéale sous un volume de 20 ml/kg chez la souris (mâle, NMRI, Evic Ceba).
Le CRL 40 956, en suspension dans une solution de gomme arabique a été administré par voie intrapéritonéale sous un volume de 20 ml/kg chez la souris (mâle, NMRI, Evic Céba) et de 5 ml/kg chez le rat (mâle, CD₁, Sprague Dawley, Charles River).
Des lots de 3 animaux sont observés avant, puis 15 mn, 30 mn, 1 h, 2 h, 3 h et 24 heures après l'administration de CRL 40 956.

rat [5] = assay: Search for stereotyped movements, rat
Excerpt: Des lots de 6 rats reçoivent une injection du composé CRL 41 334 ou d'amphétamine, puis sont immédiatement placés dans des boîtes de petites dimensions (20 x 10 x 10 cm) où leur comportement stéréotypeé est coté de 0 à 3 jusqu'à extinction de l'effet.

souris [6] = assay: Interaction with oxotremorine, mouse; details: oxotrémorine 0,5 mg/kg i.p.
Procedure: Le composé CRL 41 334 est administré à des lots de 6 souris une demi-heure avant l'injection intrapéritonéale de 0,5 mg/kg d'oxotrémorine.

souris [7] = assay: Interaction with barbital; details: souris, 8, 32 et 128mg/kg, barbital 220 mg/kg i.p.
Procedure: Une demi-heure après l'administration du composé CRL 41 334, des lots de 20 souris reçoivent une injection intrapéritonéale de barbital ([…]).
Une demi-heure après l'administration du CRL 40 956 des lots de 10 souris reçoivent une injection intrapéritonéale de 200 mg/kg de barbital.

rat [8] = assay: Interaction with amphetamine, rat; details: rat, 16, mais surtout 64 mg/kg, amphétamine 2 mg/kg i.p.
Procedure: L'amphétamine (2 mg/kg) est injectée par Voie intrapéritonéale à des lots de 6 rats, une demi-heure après l'administration du composé CRL 41 334.

homme = assay: Therapeutic use in humans; details: homme, voie orale, 4 fois 50 mg par jour
[9] = souris, 128 mg/kg, réserpine 2,5 mg/kg i.p.

## NC(=O)CSC(c1ccc(F)cc1)c1ccc(F)cc1 [CRL 41 334, 2-(4,4ʹ-difluorobenzhydrylthio)acétamide]
Souris [1]
  délai d'apparition de la mort: augmente le délai d'apparition de la mort
  délai d'apparition des convulsions: n'est pas modifié
Souris [2]; [9]
  hypothermie réserpinique: aggrave modérément l'hypothermie réserpinique
  ptosis: n'est pas modi-fié
Souris [2]; souris, 8, 32 ou 128 mg/kg, au temps 24 heures
  hypothermie et ptosis réserpiniques: semble s'opposer à l'hypothermie et au ptosis réserpiniques
[3]; Exp 1, 0,1 mg/kg
  Ind. Activité: 1,15
  % d'augmentation du coussinet (mm) m: 10,6%
[3]; Exp 1, 1 mg/kg
  Ind. Activité: 1,10
  % d'augmentation du coussinet (mm) m: 10,2%
[3]; Exp 1, 10 mg/kg
  Ind. Activité: 1,29
  % d'augmentation du coussinet (mm) m: 12,0%
[3]; Exp 1, 100 mg/kg
  Ind. Activité: 1,59
  % d'augmentation du coussinet (mm) m: 14,7^x %
[3]; Exp 2, 0,1 mg/kg
  Ind. Activité: 1,31
  % d'augmentation du coussinet (mm) m: 11,0%
[3]; Exp 2, 1 mg/kg
  Ind. Activité: 1,25
  % d'augmentation du coussinet (mm) m: 10,5%
[3]; Exp 2, 10 mg/kg
  Ind. Activité: 1,34
  % d'augmentation du coussinet (mm) m: 11,2%
[3]; Exp 2, 100 mg/kg
  Ind. Activité: 1,56
  % d'augmentation du coussinet (mm) m: 13,1%
[3]; overall statement in the text
  action immunostimulante: une action immunostimulante
Souris [4]; souris, 128 mg/kg i.p.
  comportement et réactivités: sédation pendant 30 minutes
Souris [4]; souris, 128 mg/kg i.p., à 30 minutes, durée 1 heure
  Hypothermie: -4,1 °
Souris [4]; souris, 2, 8 et 32 mg/kg i.p.
  comportement et réactivités: pas de modifications nettes du comportement et des réactivités
Rat [5]; 128 mg/kg
  durée des stéréotypies: > 420 min
  stéréotypies atteignent leur maximum: 120 to 150 min
Rat [5]; 64 et 128 mg/kg, compared with amphétamine
  intensité des stéréotypies: comparable à celle obtenue respectivement avec 1 et 2 mg
Souris [6]; 128 mg/kg
  Action sur la température: aggrave l'hypothermie induite par l'oxotrémorine
  Action sur les symptômes chlolinergiques périphériques: diminue la défécation sans modifier la salivation et la lacrymation
Souris [6]
  Action sur les tremblements: ne sont pas modifiés
Souris [7]
  durée du sommeil barbiturique: diminution importante de la durée du sommeil barbiturique
Rat [8]
  stéréotypies amphétaminiques: potentialise les stéréotypies amphétaminiques
homme
  traitement des dépressions des brûlés: bons résultats
